The values that follow come from US7119107B2, “Pyridone derivatives” (Banyu Pharmaceutical Co., Ltd., priority 2002, dated 2006).

Where two headings read alike, the source gives them in different places.

The subject of data set [1] is gastrointestinal motility. Kind of data set: Gastrointestinal motility (charcoal transportation). The data set is classed as in vivo, male ICR mice. The following applies: mice, 100 mg/kg orally, charcoal one hour later. As for the experimental part:
Pharmacological Test 6 (Gastrointestinal Motility) A test compound was orally administered to male ICR mice (4–6 weeks old) under the overnight fasting condition and, one hour later, 0.5% charcoal suspension (0.1 ml/10 g body weight) was orally administered. One hour after the administration of the charcoal, gastrointestinal tracts of the animals were removed, and length of the intestine from pylorus to the point to which charcoal reached was measured to obtain charcoal transportation ratio.

Data set [2] in a line: Brain/cerebrospinal fluid transport test. The data set is classed as in vivo, male SD rats. As to conditions: rat, one hour after oral administration (10 mg/kg); for concentration at 1 h: male, SD. As for the experimental part:
Pharmacological Test 4 (Brain/Cerebrospinal Fluid Transport Test)
A test compound was orally or intravenously administered to male SD rats (7–10 weeks old, 200–400 g), and whole blood was collected from the abdominal aorta using a heparin-treated syringe under the ether anesthesia at designated time. Then, the head skin was cut out, and a dental 30 G needle was inserted between the cervical vertebrae, and it was further inserted into the cavum subarachnoideum. After 50 to 100 μL cerebrospinal fluid had been collected by a 1 ml-syringe through a tube connected to the dental 30 G needle, the brain was extracted. The blood sample was centrifuged (4° C., 6,000 r.p.m., 10 minutes) to obtain the plasma, and 3-fold amount of ethanol containing an internal standard was added and stirred. The brain sample was homogenized after addition of 2 ml water, and an aliquot of the homogenate was taken and 3-fold amount of ethanol containing an internal standard was added and stirred. The cerebrospinal fluid was stirred after adding 3-fold amount of ethanol containing an internal standard. These samples were allowed to stand at −20° C. for 20 minutes, and then centrifuged (4° C., 12,000 g, 10 minutes). The supernatant was analyzed by LC/MS/MS, and the concentration of the test compound in the plasma, brain, and cerebrospinal fluid were measured by the method using a relative calibration curve.

In the next data set the test system is canine cardiac function. Briefly: Canine cardiac function. The data set is classed as in vivo, male beagle dogs. The following applies: anesthetized beagle dogs, 3 mg/kg and 10 mg/kg via vein cannula, up to 60 minutes. The source says: Pharmacological Test 7 (Canine Cardiac Function)
The left femoral artery and vein of male beagle dogs (age: 9 months or older, weight: 10–15 kg) under anesthesia with isoflurane and artificial respiration were respectively cannulated for determination of arterial pressure and for administration of drugs. A tip catheter pressure transducer was placed in the left ventricle from the left carotid artery for determination of the left ventricular pressure. A Swan-Ganz catheter was placed in the pulmonary artery from the jugular vein via the right ventricle for determination of the pulmonary artery pressure, right atrium pressure and cardiac output. A transit doppler flow probe was attached to the right femoral artery for determination of the femoral blood flow. After completion of the operation, a solvent was administered from the cannula in the vein, followed by administration of a drug to be tested. Each parameter was determined just after the administration, and 10, 20, 30 and 60 minutes after the administration. The parameters determined were artery pressure, left ventricular pressure, pulmonary artery pressure, right atrium pressure, cardiac output, femoral blood flow, heart rate, electrocardiogram, left ventricular contractile performance (first differential of the left ventricular pressure), total peripheral vascular resistance, body temperature and arterial blood gas.

The nature of another data set: Pharmacokinetics test. The following applies: rat, plasma, male SD rats, overnight fasting. The data set is classed as in vivo. As for the experimental part: Pharmacological Test 3 (Pharmacokinetics Test)
A test compound was orally or intravenously administered to male SD rats (7–10 weeks old, 200–400 g) under the overnight fasting condition. About 100 μL of blood was collected from the tail vein by heparinized capillary at designated time. The blood was centrifuged (4° C., 6,000 r.p.m., 10 minutes) to obtain the plasma. Three-fold amount of ethanol containing an internal standard was added to plasma. The mixture was stirred, allowed to stand at −20° C. for 20 minutes, and then centrifuged (4° C., 10,000 r.p.m., 10 minutes). The supernatant was analyzed by LC/MS/MS, and the concentration of the test compound in the plasma was measured using a relative calibration curve.

A further data set addresses T1, human NPY Y5 receptor (Homo sapiens, UniProt Q15761).
T1 construct: expressed in transfected cells; host or cells: COS-7, CHO and LM(tk-)
T1 sequence (Q15761 1-445): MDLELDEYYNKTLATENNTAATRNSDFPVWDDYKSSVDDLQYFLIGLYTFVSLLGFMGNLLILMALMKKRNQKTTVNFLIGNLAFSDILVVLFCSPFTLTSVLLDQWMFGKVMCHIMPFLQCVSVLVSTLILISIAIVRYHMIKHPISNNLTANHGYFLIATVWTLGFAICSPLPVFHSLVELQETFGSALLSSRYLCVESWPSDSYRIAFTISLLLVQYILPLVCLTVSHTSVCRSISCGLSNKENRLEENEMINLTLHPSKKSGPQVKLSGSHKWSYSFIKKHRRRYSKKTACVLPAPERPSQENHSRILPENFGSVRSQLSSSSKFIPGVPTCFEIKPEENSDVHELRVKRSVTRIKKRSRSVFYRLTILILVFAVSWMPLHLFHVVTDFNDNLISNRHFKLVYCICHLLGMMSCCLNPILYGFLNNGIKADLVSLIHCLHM
Kind of data set: NPY binding inhibition test ([125I]peptide YY binding to membranes of NPY Y5 receptor expression cells). The following applies: [125I]peptideYY, membranes of NPY Y5 receptor expressing cells, 25° C., 2 hours; read-out: 50% Inhibitory Concentration (IC50) against specific peptide YY binding. The source says:
Pharmacological Test 1 (NPY Binding Inhibition Test)
cDNA sequence encoding human NPY Y5 receptor (c.f. International patent publication WO96/16542) was cloned into expression vectors pcDNA3, pRc/RSV (made by Invitrogen Inc.) and pCI-neo (made by Promega Inc.). The expression vectors thus obtained were transfected to host cells COS-7, CHO and LM(tk−) (American Type Culture Collection) by cationic lipid method (Proceedings of the National Academy of Sciences of the United States of America, vol. 84: p. 7413(1987)) to give NPY Y5 receptor expression cells.
A membrane sample prepared from the cells which expressed NPY Y5 receptor was incubated together with a test compound and [^125I]peptideYY (made by NEN) (20,000 cpm) in an assay buffer (25 mM Tris buffer, pH7.4, containing 10 mM magnesium chloride, 1 mM phenylmethylsulfonyl fluoride, 0.1% bacitracin and 0.5% bovine serum albumin) at 25° C. for 2 hours, then filtered through a glass filter GF/C and washed with 5 mM Tris buffer (pH7.4) containing 0.3% BSA. The radioactivity of the cake on the glass filter was measured. Non-specific binding was measured in the presence of 1 μM peptide YY, and a 50% Inhibitory Concentration (IC50) of the test compound against specific peptide YY binding was determined (Endocrinology, vol. 131: p. 2090(1992)).

A further data set concerns general symptoms. Kind of data set: General symptoms observation. The following applies: mice, 100 mg/kg orally, observed 0.5 to 24 hours after administration. The data set is classed as in vivo. Here is the method:
Pharmacological Test 5 (General Symptoms Observation)
A test compound was orally administered to male ICR mice (4–6 weeks old) under the overnight fasting condition, and general symptoms were observed 0.5, 1, 2, 3, 4 and 24 hours after the administration. The following 28 items were observed: stereotypy, glooming, vocalization, exploratory behavior, motor coordination, Straub tail reaction, tremor, convulsion, body posture, piloerection, writhing, palpebral opening, exophthalmos, skin color, respiratory rate, urination, defecation, salivation, lacrimation, startle response, aggression, grip strength, corneal reflex, body temperature, body tone, righting reflex, pain response and death.

On to `C[C@@H]1NC(c2cccc(=O)[nH]2)=N[C@]1(c1ccc(F)cc1)c1ccnc(F)c1` [Example 1, 6-[(4R,5S)-4-(4-fluorophenyl)-4-(2-fluoro-4-pyridyl)-5-methyl-2-imidazolin-2-yl]-2(1H)-pyridinone], for which, in data set [1], the “effect on gastrointestinal motility (charcoal transportation ratio)” value was “did not affect”. The concentration at 1 h is 106 nM in data set [2] (cerebrospinal fluid, read-out: concentration in the cerebrospinal fluid) and 2790 nM in data set [2] (plasma, read-out: concentration in the plasma). In addition, the “concentration in the brain” value in data set [2] is 0.29 nmol/g. The “effect on canine cardiac function” value in the data set on canine cardiac function is “did not affect”. This molecule also returned a bioavailability in the data set “Pharmacokinetics test” (oral or intravenous administration) of 51%. In addition, the half-life in the data set “Pharmacokinetics test” was 2.5 h. Moreover, the IC50 at human NPY Y5 receptor worked out at 2.8 nM. The “effect on general symptoms (28 items)” value with general symptoms is reported as “did not affect”.

Broadly, the bioavailability is dose-corrected exposure relative to a reference, in per cent. The term half-life denotes the time needed for the level to fall by half in the phase considered. A lower half-life goes with rapid decline.
